The values below come from patent publication US20210008088A1, “COMPOSITION FOR PREVENTING OR TREATING NON-ALCOHOLIC LIVER DISEASE OR INSULIN RESISTANCE COMPRISING GINSENOSIDE F2” (INTELLIGENT SYNTHETIC BIOLOGY CENTER, priority 2015, published 2021).

Experiment [1] relates to mouse model fed with high fat diet. The experiment is described as follows: Effect of alleviating fatty liver in mouse model fed with high fat diet. Format: in vivo. To be noted: 50 mg/kg orally five days a week for 12 weeks. Here is the method:
The effect of ginsenoside F2 on alleviating fatty liver was confirmed using a mouse model fed with high fat diet. Eight-week-old male mouse (body weight; 25 g to 28 g) were orally fed with high fat diet and ginsenoside F2 (50 mg/kg) five days a week for a period of 12 weeks. […] From the results, it was confirmed that ginsenoside F2 has the effect of inhibiting fatty liver production in mice even when they were fed with high fat diet.

Experiment [2] deals with adipogenesis in the liver (SREBP1c, FAS, CB1R, NAPE-PLD). The experiment can be described thus: Analysis of liver tissues of high fat diet-fed mice (H&E, Oil-red O staining, triglyceride, protein and gene expression). Format: in vivo, mouse. Here is the method: Hematoxylin and Eosin (H&E) staining was performed for the observation of the changes in the liver tissues, and the triglycerides in hepatocytes were stained via Oil-red O staining, and the results are shown under ×100 magnification (FIG. 2A). As a result, it was confirmed again that the lipid accumulation in hepatocytes was reduced.

Experiment [3] deals with mouse fed with high fat diet. The experiment can be described thus: Improvement in insulin sensitivity: blood glucose after glucose and insulin administration. Format: in vivo. To be noted: vs control group (FIG. 3). Here is the method: An eleven-week-old mouse was administered with glucose and insulin and the blood glucose level was monitored in a time-dependent manner.

Experiment [4] relates to inflammatory cytokines (TNF-α, IL-1β, and IL-6). The experiment can be described thus: Expression of inflammatory cytokines in mouse fed with high fat diet. To be noted: mouse fed with high fat diet and ginsenoside F2 (FIG. 4). Format: in vivo.
The test system of a further experiment is hepatic stellate cells. The experiment can be described thus: Expression of endocannabinoid synthase in hepatic stellate cells treated with TNF-α. Format: cell-based. To be noted: hepatic stellate cells after TNF-α; 10 μM, 20 μM, and 30 μM; 24 hours (FIG. 5). Here is the method:
After treating hepatic stellate cells with TNF-α, they were treated with ginsenoside F2 at concentrations of 10 μM, 20 μM, and 30 μM, and cultured for 24 hours. As a result of examining the difference in expression levels in the cultured hepatic stellate cells, it was confirmed that ginsenoside F2 inhibits the expression of DAGLα and DAGLβ, which are enzymes important for the synthesis of 2-AG, a kind of endocannabinoids, and that ginsenoside F2 inhibits the expression of NAPE-PLD and FAAH, which are factors associated with liver damage (FIG. 5).

Experiment [5] deals with breast cancer stem cells (CSCs). To be noted: inducing apoptosis along with autophagy in breast cancer stem cells; Mai T T et al. 2012; cited from earlier work.
A further experiment concerns glioblastoma. To be noted: xenograft model in SD rats; Shin J Y et al. 2012; cited from earlier work.
The mark [6] stands for this setting: liver, high fat diet-fed mice (FIGS. 2C and 2D).

As to `CC(C)=CCC[C@](C)(O[C@@H]1O[C@H](CO)[C@@H](O)[C@H](O)[C@H]1O)[C@H]1CC[C@]2(C)[C@@H]1[C@H](O)C[C@@H]1[C@@]3(C)CC[C@H](O[C@@H]4O[C@H](CO)[C@@H](O)[C@H](O)[C@H]4O)C(C)(C)[C@@H]3CC[C@]12C` [ginsenoside F2], the size of liver result in experiment [1] (vs control group (FIG. 1A)) is recorded as “significant decrease”. Further, the weight of liver result in experiment [1] (vs control group (FIG. 1B)) was “significant decrease”. Besides, the “lipid accumulation in hepatocytes” value in experiment [2] (H&E and Oil-red O staining, ×100 magnification (FIG. 2A)) is recorded as “reduced”. Moreover, in experiment [2] (high fat diet-fed mice (FIG. 2B)), the “triglyceride level in the liver” value is recorded as “lowered”. Besides, in experiment [2] (setting [6]), the “expression of CB1R gene” value is “reduced”, the “expression of FAS gene” value is given as “reduced”, the “expression of NAPE-PLD gene” value was “reduced” and the “expression of SREBP1c gene” value was “reduced”. Also, in experiment [2] (setting [6]), the “protein expression of FAS” value is given as “reduced” and the “protein expression of SREBP1c” value is “reduced”. The “blood glucose level with time” value in experiment [3] was “decrease”. Further, in experiment [4], the “expression of IL-1β” value is “inhibit”, the “expression of IL-6” value is “inhibit” and the “expression of TNF-α” value is on record as “inhibit”. For the same molecule, in the experiment on hepatic stellate cells, the “expression of DAGLα” value is given as “inhibits”, the “expression of DAGLβ” value is “inhibits”, the “expression of FAAH” value is “inhibits” and the “expression of NAPE-PLD” value is “inhibits”. Also, the “anticancer effect in breast cancer” value in experiment [5] is reported as “anticancer effect”. The “anticancer effect against glioblastoma” value with glioblastoma is on record as “anticancer effect”.
